# Entries after “also recorded” stand apart in the source; their conditions may differ. Where two headings read alike, the source gives them in different places.
# Assays:
# FLJ25288-derived protein = target: T1, FLJ25288-derived protein (Homo sapiens, UniProt P09525, T85M); experiment: SEC/MS interaction analysis, FLJ25288-derived protein (Annexin A4); assay type: binding; settings: TSKgel super SW2000 micro-LC column (1.0 mm ID×30 mm); presence vs absence of protein; data not shown
# T1 construct: His-tag (N); made in house; host or cells: Escherichia coli BL21star(DE3)pLysS
# T1 sequence (P09525 1-321 isoform P09525-3 T87M): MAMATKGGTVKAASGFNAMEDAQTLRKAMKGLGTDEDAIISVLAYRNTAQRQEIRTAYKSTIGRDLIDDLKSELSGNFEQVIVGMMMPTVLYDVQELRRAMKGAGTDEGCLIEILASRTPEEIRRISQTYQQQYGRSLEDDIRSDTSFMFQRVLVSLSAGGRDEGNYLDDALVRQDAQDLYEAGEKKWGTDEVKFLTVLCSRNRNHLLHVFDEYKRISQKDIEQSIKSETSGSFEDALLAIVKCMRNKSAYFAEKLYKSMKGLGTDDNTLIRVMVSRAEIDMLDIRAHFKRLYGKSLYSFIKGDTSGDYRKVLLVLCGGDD
# Text: (§1) To analyze the interactions between commonly used drugs and proteins expressed from human full-length cDNA clones while keeping both the proteins and the compounds in non-modified, non-immobilized state, size exclusion chromatography (SEC) and mass analysis were used in combination. The specific procedures are shown below.
# (§2) The compound-protein mixture prepared in step 1 was subjected to chromatography using an SEC column, the compound and the protein were separated by SEC, and the compound that interacted with the bound compound or protein contained in the protein fraction was analyzed using a mass analyzer.
# (§3) Protein concentrations were measured using BCA Protein Assay (PIERCE), in consideration of the purity calculated by SDS-PAGE.
# (§4) Mass analysis was performed using LCQ DECA XP (Thermoelectron) or Q-TOF micro (Micromass), equipped with an ESI probe. […]
# (§5) In the 384-well spin column method, Unifilter 100 (Whatman), packed with 10 μL (dry volume) of Bio-Gel P6 (BIO-RAD) and swollen with milliQ water, was used as the SEC column. […] 2-μL of mass analysis samples were injected using an autosampler at 2-minute intervals; the mass spectral intensity of the compound was measured to retrieve the spectral intensity of the pharmaceutical compound contained in the SEC spin column filtrate (protein fraction eluted from SEC).
# [1] = tested on: FLJXXXXX-derived proteins; experiment: SEC/MS spin column interaction analysis of FLJXXXXX-derived proteins and various compounds (Tables 30-1 to 30-4); assay type: binding, human
# Method: Mass analysis was performed using LCQ DECA XP (Thermoelectron) or Q-TOF micro (Micromass), equipped with an ESI probe. The LC pump used was Agilent 1100 (Yokogawa Analytical Systems), and the autosampler used was HTC-PAL (CTC Analytics) equipped with a cooling stacker. The SEC column used was a micro-LC column or a 384-well spin column.
# In the 384-well spin column method, Unifilter 100 (Whatman), packed with 10 μL (dry volume) of Bio-Gel P6 (BIO-RAD) and swollen with milliQ water, was used as the SEC column. […] The SEC spin column was mounted on an acetonitrile-aliquoted 384-well U-bottom plate and centrifuged; the SEC spin column filtrate, which is a protein fraction, was recovered in 50% acetonitrile. The protein precipitate produced by the acetonitrile was removed via centrifugation and filtration for deproteinization; the resulting filtrate was concentrated by centrifugal concentration and re-dissolved in 10 μL of 50% methanol to obtain a mass analysis sample. The mobile phase supplied to the mass analyzer was 0.1% formic acid/50% methanol solution in the positive ion mode, and 0.1% ammonia/50% methanol solution in the negative ion mode; these mobile phases were used at a flow rate of 40 μL/min. 2-μL of mass analysis samples were injected using an autosampler at 2-minute intervals; the mass spectral intensity of the compound was measured to retrieve the spectral intensity of the pharmaceutical compound contained in the SEC spin column filtrate (protein fraction eluted from SEC).
# FLJ39553-derived protein = target: T2, FLJ39553-derived protein (Homo sapiens, UniProt Q6P6B1, N326S); experiment: SEC/MS interaction analysis, FLJ39553-derived protein (hypothetical protein FLJ39553); assay type: binding; settings: TSKgel super SW2000 micro-LC column (1.0 mm ID×30 mm); presence vs absence of protein; data not shown
# T2 construct: His-tag (N); made in house; host or cells: Escherichia coli BL21star(DE3)pLysS
# T2 sequence (Q6P6B1 1-374 N326S): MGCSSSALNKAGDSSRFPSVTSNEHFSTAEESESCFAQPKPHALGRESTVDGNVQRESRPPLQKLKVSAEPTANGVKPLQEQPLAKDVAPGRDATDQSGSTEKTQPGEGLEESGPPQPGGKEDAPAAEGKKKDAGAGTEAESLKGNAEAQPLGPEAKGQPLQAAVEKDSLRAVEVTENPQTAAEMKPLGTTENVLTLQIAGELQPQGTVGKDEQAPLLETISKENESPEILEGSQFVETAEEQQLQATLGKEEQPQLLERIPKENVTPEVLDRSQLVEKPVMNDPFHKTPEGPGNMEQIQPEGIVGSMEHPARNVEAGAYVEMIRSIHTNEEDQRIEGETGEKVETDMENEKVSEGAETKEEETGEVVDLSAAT
# Text: as §1, §2, §3, §4, §5
# FLJ35914-derived protein = target: T3, FLJ35914-derived protein (Homo sapiens, UniProt Q9HB65, DEL362-362); experiment: SEC/MS interaction analysis, FLJ35914-derived protein (ELL3); assay type: binding; settings: TSKgel super SW2000 micro-LC column (1.0 mm ID×30 mm); presence vs absence of protein; data not shown
# T3 construct: His-tag (N); made in house; host or cells: Escherichia coli BL21star(DE3)pLysS
# T3 sequence (Q9HB65 with tags, fused parts or gaps DEL362-362): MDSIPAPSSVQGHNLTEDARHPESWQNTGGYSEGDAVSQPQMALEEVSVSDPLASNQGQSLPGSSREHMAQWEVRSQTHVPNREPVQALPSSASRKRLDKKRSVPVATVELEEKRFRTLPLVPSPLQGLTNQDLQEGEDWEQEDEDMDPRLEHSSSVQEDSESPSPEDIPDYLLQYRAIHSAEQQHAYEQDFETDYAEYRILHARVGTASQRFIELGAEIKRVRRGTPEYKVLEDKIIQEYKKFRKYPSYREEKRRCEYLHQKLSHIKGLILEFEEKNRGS
# Text: (§6) The specific procedures are shown below.
# FLJ36526-derived protein = target: T4, FLJ36526-derived protein (Homo sapiens, UniProt Q9UNZ2, D290N/L361F); experiment: SEC/MS interaction analysis, FLJ36526-derived protein (NSFL1 (p97) cofactor (p47)); assay type: binding; settings: TSKgel super SW2000 micro-LC column (1.0 mm ID×30 mm); presence vs absence of protein; data not shown
# T4 construct: His-tag (N); made in house; host or cells: Escherichia coli BL21star(DE3)pLysS
# T4 sequence (Q9UNZ2 1-370 D290N/L361F): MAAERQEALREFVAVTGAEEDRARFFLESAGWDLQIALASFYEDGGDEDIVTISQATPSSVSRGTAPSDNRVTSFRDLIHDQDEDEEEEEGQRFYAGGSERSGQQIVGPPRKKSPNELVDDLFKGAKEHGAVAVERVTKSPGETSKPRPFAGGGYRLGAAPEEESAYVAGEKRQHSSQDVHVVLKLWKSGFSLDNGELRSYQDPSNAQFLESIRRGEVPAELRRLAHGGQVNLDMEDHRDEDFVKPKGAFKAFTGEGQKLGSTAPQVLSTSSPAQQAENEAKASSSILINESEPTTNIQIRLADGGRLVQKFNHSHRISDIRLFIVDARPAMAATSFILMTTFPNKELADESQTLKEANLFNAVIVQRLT
# Text: as §6
SMILES,interaction judged from mass chromatogram of the compound (elution from SEC micro-LC column) (FLJ25288-derived protein),"FLJ No of the derived protein with which the compound was judged to exhibit a concentration-dependent interaction ([1]; SEC spin column filtrate, spectral intensity increased with doses of compound and protein)",interaction judged from mass chromatogram of the compound (elution from SEC micro-LC column) (FLJ39553-derived protein),interaction judged from mass chromatogram of the compound (elution from SEC micro-LC column) (FLJ35914-derived protein),interaction judged from mass chromatogram of the compound (elution from SEC micro-LC column) (FLJ36526-derived protein),FLJ No of the derived protein with which the compound was judged to exhibit a concentration-dependent interaction [1]
"CN(Cc1cnc2nc(N)nc(N)c2n1)c1ccc(C(=O)N[C@@H](CCC(=O)O)C(=O)O)cc1 (racemic) [amethopterin (R, S), amethopterin]",there was an interaction,FLJ25288,,,,
C/C1=C2N=C(/C=C3N=C(/C(C)=C4\[N-][C@@](C)([C@@H]5N=C1[C@](C)(CCC(=O)NC[C@@H](C)OP(=O)([O-])O[C@H]1[C@@H](O)[C@@H](n6cnc7cc(C)c(C)cc76)O[C@@H]1CO)[C@H]5CC(N)=O)[C@@](C)(CC(N)=O)[C@@H]4CCC(N)=O)[C@@](C)(CC(N)=O)[C@@H]\3CCC(N)=O)C(C)(C)[C@@H]/2CCC(N)=O.[Co+3].[OH-] [hydroxocobalamin],,,there was an interaction,there was an interaction,there was an interaction,FLJ35914; also recorded: FLJ36526; also recorded: FLJ39553

# From patent publication US20090143285A1, “TARGET PROTEIN AND TARGET GENE FOR DRUG DISCOVERY AND SCREENING METHOD” (REVERSE PROTEOMICS RESEARCH INSTITUTE CO., LTD., priority 2005, published 2009)
